According to patent US12365651B2, “Use of pirfenidone and derivatives for modulation of B lymphocyte activity and organ protection from acute tissue damage” (Washington University, priority 2017, dated 2025):

System: purified B lymphocytes harvested from the spleen
Assay: CD86 on cultured purified splenic B lymphocytes
Format: cell-based, mouse
Source text: We next sought to determine whether the response of B cells to necrotic cytosolic extracts and LPS were cell autonomous, by repeating the above in vitro experiments in purified B lymphocytes harvested from the spleen. […] In contrast, necrotic cytosolic extracts induced a small, non-statistically significant (p=0.62) upregulation of CD19+ CD86high B cells when compared to diluent treated cells (FIG. 10G). Similar results were obtained in splenic B lymphocytes from TIRAP−/− animals (FIG. 10H).
Peritoneal derived inflammatory cells (PDICs) were harvested from the peritoneal cavity of thioglycolate-stimulated wild-type and TIRAP−/− deficient mice. PDIC cultures contain an admixture of inflammatory cells, including CD19+ B cells (40). TIRAP deficient mice were a gift from Dr. Ruslan Medzhitov (Yale University, New Haven, CT). PDICs were harvested on day 4 after i.p. injection of 1 ml of thioglycolate medium (Millipore, Billerica, MA, USA). Mice were euthanized, and the peritoneal cavity was washed 3-4 times with 3 mLs of Dulbecco's modified medium containing 10% fetal calf serum. A 3 mL syringe with an 18-gauge needle was used to inject the peritoneal cavity and retrieve the medium containing PDICs. Harvested cells were centrifuged at 250 g for 5 minutes, re-suspended in 5 mL of media and then filtered through a 40 μm strainer. […]

## Cc1ccc(=O)n(-c2ccccc2)c1 [Pirfenidone, 5 methyl-1-phenyl-2-[H] pyridone]
B lymphocytes from the spleen, 24 hours, LPS + 0.5% pirfenidone
  LPS induced expression of CD86 on B cells: significantly reduced
Purified splenic B lymphocytes, wild type, LPS
  LPS provoked increase in CD19+ CD86high cells: partially sensitive to inhibition
